Experimental data from patent US20100204130A1, “USE OF HUMAN NEUROPEPTIDE AS A THERAPEUTIC AGENT” (priority 2007, published 2010).
Where a SMILES comes first, the peptide text is derived from it.

Tested on: drug-resistant Mycobacterium tuberculosis
Conditions: 5 micrograms per ml

## CC(C)C[C@H](NC(=O)CNC(=O)[C@H](CCC(=O)O)NC(=O)CNC(=O)[C@H](C)N)C(=O)N[C@@H](CC(N)=O)C(=O)N[C@@H](CO)C(=O)N[C@@H](CCC(N)=O)C(=O)N[C@@H](Cc1ccccc1)C(=O)N[C@@H](Cc1c[nH]c2ccccc12)C(=O)N[C@@H](CO)C(=O)N[C@@H](CC(C)C)C(=O)N[C@@H](C)C(=O)N[C@@H](C)C(=O)N1CCC[C@H]1C(=O)N[C@@H](CCC(N)=O)C(=O)N[C@@H](CCCNC(=N)N)C(=O)N[C@@H](Cc1ccccc1)C(N)=O [Neuropeptide AF, Ala-Gly-Glu-Gly-Leu-Asn-Ser-Gln-Phe-Trp-Ser-Leu-Ala-Ala-Pro-Gln-Arg-Phe-NH2] (H-AGEGLNSQFWSLAAPQRF-NH2)
  % inhibition: 0.0%
